The source of these data is patent US8470787B2, “Hydrates of erythromycin salts, preparation and use thereof” (priority 2008, dated 2013).

The nature of data set [1]: hygroscopic test according to China Pharmacopeia CP2005. It is filed as physicochemical. The following applies: 25° C.
The nature of data set [2]: accelerated stability test (sealed vial, 30° C., HPLC content and related substances). It is filed as physicochemical. As for the experimental part:
The hydrates of erythromycin salts according to the present invention can be stably stored. A sample of the above hydrates was sealed in a vial, and an accelerated stability test was conducted at 30° C. and changes of the content and related substances were measured by a HPLC method (C18 reverse phase column, 0.01M KH2PO4-acetonitrile (60:40) as the mobile phase, detective wavelength: 215 nm, column temperature: 35° C., flow rate: 1.0 ml/min) (upon different hydrates of erythromycin salts, such as crystalline hydrates of erythromycin thiocyanate, the pH of the mobile phase can be adjusted and KH2PO4 can be changed into NaH2PO4, the detective wavelength can be changed into 210 nm, and the column temperature can be set at 35-55° C., such as 50° C. for analysis and measurement). […] As compared to the anhydrous of erythromycin salt, the hydrates of erythromycin salts according to the present invention have a lower hygroscopicity, i.e., has a better stability of hygroscopicity, which facilitates the package and storage thereof, or is a more advantageously stable form for storage relative to the anhydrous.

In the next data set the test system is Bacillus fragilis. Nature of the data set: antibacterial activity, tube double dilution method, clinically obtained bacteria. It is filed as cell-based. Particulars: for MIC50 / MIC90: 15 strains; for MIC: range over 15 strains. On the procedure:
(§1) The antibacterial activities of the hydrates of erythromycin salts are determined by culturing clinically obtained bacteria and measuring in accordance with pharmacological test methods (the tube double dilution method), and the results are shown in the following tables 9, 10, 11 and 12.

A further data set relates to Propionibacterium. The description is as above. It is filed as cell-based. The following applies: for MIC50 / MIC90: 18 strains; for MIC: range over 18 strains. As for the experimental part:
as §1

For data set [3], the system named is Streptococcus hemolyticus. Described as above. It is filed as cell-based. Particulars: for MIC50 / MIC90: 16 strains; for MIC: range over 16 strains. As for the experimental part: as §1
In another data set the test system is Pneumococcus. The data set is described as above. It is filed as cell-based. The following applies: for MIC50 / MIC90: 18 strains; for MIC: range over 18 strains. On the procedure: as §1
The subject of a further data set is Bacillus influenzae. The description is as above. It is filed as cell-based. The following applies: for MIC50 / MIC90: 17 strains; for MIC: range over 17 strains. As for the experimental part:
as §1

For another data set, the system named is Anaerobe. The description is as above. It is filed as cell-based. Particulars: for MIC50 / MIC90: 16 strains; for MIC: range over 16 strains. On the procedure:
as §1

The test system of another data set is Neisseria gonorrhoeae. The data set is described as above. The following applies: for MIC50 / MIC90: 16 strains; for MIC: range over 16 strains. It is filed as cell-based. On the procedure: as §1
Another data set relates to Escherichia coli. Described as above. Particulars: 21 strains. It is filed as cell-based.
Another data set deals with Staphylococcus aureus. Described as above. It is filed as cell-based. Particulars: 26 strains.
For another data set, the system named is Streptococcus viridan. The data set is described as above. It is filed as cell-based. The following applies: 23 strains.
Data set [4] concerns Staphylococcus epidermidis. The description is as above. It is filed as cell-based. The following applies: 21 strains.

Where two headings read alike, the source gives them in different places.

For the compound “erythromycin thiocyanate hemitri(1.5)hydrate”, in data set [1] (RH 75%, 48 h), the “Hygroscopic weight gain %, relative to 0 h” value amounted to 3.12%. Also, the “Assay (%)” value was 99.9% in [2] (month 0); 100.3% in data set [2] (month 1); 100.5% in [2] (month 2); 100.1% in data set [2] (month 3); 100.2% in [2] (month 6). The Form entry in data set [2] (month 0), in [2] (month 1), in [2] (month 2), in data set [2] (month 3) and in data set [2] (month 6) was “off-white powder” in each case.

Turning to `CC[C@H]1OC(=O)[C@H](C)[C@@H](O[C@H]2C[C@@](C)(OC)[C@@H](O)[C@H](C)O2)[C@H](C)[C@@H](O[C@@H]2O[C@H](C)C[C@H](N(C)C)[C@H]2O)[C@](C)(O)C[C@@H](C)C(=O)[C@H](C)[C@@H](O)[C@]1(C)O.N#CS.O.O` [erythromycin thiocyanate dihydrate], the MIC50 was determined as 4 µg/mL against Bacillus fragilis; 0.06 µg/mL in the data set on Propionibacterium; 0.06 µg/mL in data set [3]; 0.06 µg/mL with Pneumococcus; 4 µg/mL in the data set on Bacillus influenzae; 2 µg/mL against Anaerobe. Besides, the MIC50 against Neisseria gonorrhoeae was determined as 0.25 µg/mL; in the data set with Escherichia coli it was 4 µg/mL; in the data set with Staphylococcus aureus, 0.12 µg/mL; in the data set with Streptococcus viridan it was 0.06 µg/mL; in [4], 16 µg/mL. Also, the MIC90 against Bacillus fragilis stood at 16 µg/mL; in the data set with Propionibacterium, 0.12 µg/mL; in data set [3], 32 µg/mL; with Pneumococcus, 1 µg/mL; against Bacillus influenzae, 8 µg/mL; against Anaerobe it was 16 µg/mL. Also, the MIC90 in the data set with Neisseria gonorrhoeae was found to be 1 µg/mL; in the data set with Streptococcus viridan it was 0.5 µg/mL. The MIC against Bacillus fragilis fell in the range of 0.5 to 64 µg/mL; against Propionibacterium, 0.03 to 16 µg/mL; in [3], 0.03 to 32 µg/mL; in the data set with Pneumococcus it was 0.03 to 0.5 µg/mL; in the data set with Bacillus influenzae, 0.12 to 8 µg/mL; in the data set on Anaerobe it was 0.06 to 64 µg/mL. In addition, the MIC against Neisseria gonorrhoeae is 0.06 to 2 µg/mL. The “Assay (%)” value in data set [2] (month 0) is on record as 99.9%; in data set [2] (month 1), 99.9%; in data set [2] (month 2), 100.4%; in data set [2] (month 3), 100.2%; in data set [2] (month 6), 99.8%. The Form result in data set [2] (month 0), in data set [2] (month 1), in data set [2] (month 2), in data set [2] (month 3) and in data set [2] (month 6) was “off-white powder” throughout.

For the compound `CC[C@H]1OC(=O)[C@H](C)[C@@H](O[C@H]2C[C@@](C)(OC)[C@@H](O)[C@H](C)O2)[C@H](C)[C@@H](O[C@@H]2O[C@H](C)C[C@H](N(C)C)[C@H]2O)[C@](C)(O)C[C@@H](C)C(=O)[C@H](C)[C@@H](O)[C@]1(C)O.O=C(O)[C@H](O)[C@@H](O)[C@H](O[C@@H]1O[C@H](CO)[C@H](O)[C@H](O)[C@H]1O)[C@H](O)CO` [Erythromycin lactobionate anhydrous, reference compound], the “hygroscopicity (in words), compared with the anhydrous” value in [1] (relative humidity 75%) is reported as “more hygroscopic”.

With `CC[C@H]1OC(=O)[C@H](C)[C@@H](O[C@H]2C[C@@](C)(OC)[C@@H](O)[C@H](C)O2)[C@H](C)[C@@H](O[C@@H]2O[C@H](C)C[C@H](N(C)C)[C@H]2O)[C@](C)(O)C[C@@H](C)C(=O)[C@H](C)[C@@H](O)[C@]1(C)O.O.O.O.O.O.O.O=C(O)[C@H](O)[C@@H](O)[C@H](O[C@@H]1O[C@H](CO)[C@H](O)[C@H](O)[C@H]1O)[C@H](O)CO` [erythromycin lactobionate hexahydrate], the MIC50 came out at 4 µg/mL in the data set on Bacillus fragilis; 0.06 µg/mL in the data set on Propionibacterium; 0.06 µg/mL in [3]; 0.06 µg/mL in the data set with Pneumococcus; 4 µg/mL in the data set with Bacillus influenzae; 2 µg/mL against Anaerobe. Also, the MIC50 against Neisseria gonorrhoeae is 0.25 µg/mL; against Escherichia coli, 4 µg/mL; against Staphylococcus aureus it was 0.12 µg/mL; against Streptococcus viridan, 0.06 µg/mL; in data set [4] it was 16 µg/mL. For the same compound, the MIC90 is 16 µg/mL against Bacillus fragilis; 0.12 µg/mL against Propionibacterium; 32 µg/mL in data set [3]; 1 µg/mL in the data set on Pneumococcus; 8 µg/mL in the data set on Bacillus influenzae; 16 µg/mL in the data set on Anaerobe. Besides, the results for the MIC90 with Neisseria gonorrhoeae and in the data set on Streptococcus viridan were 1 µg/mL and 0.5 µg/mL, respectively. Besides, the MIC was 0.5 to 64 µg/mL in the data set with Bacillus fragilis; 0.03 to 16 µg/mL in the data set on Propionibacterium; 0.03 to 32 µg/mL in data set [3]; 0.03 to 0.5 µg/mL with Pneumococcus; 0.12 to 8 µg/mL against Bacillus influenzae; 0.06 to 64 µg/mL in the data set on Anaerobe. The same compound came in with an MIC with Neisseria gonorrhoeae of 0.06 to 2 µg/mL. The “Assay (%)” value was 99.7% in data set [2] (month 0); 99.6% in data set [2] (month 1); 100.2% in data set [2] (month 2); 99.8% in data set [2] (month 3); 99.6% in data set [2] (month 6). Moreover, the Form entry in [2] (month 0), in [2] (month 1), in data set [2] (month 2), in data set [2] (month 3) and in data set [2] (month 6) was “off-white powder” each time.

On to `CC[C@H]1OC(=O)[C@H](C)[C@@H](O[C@H]2C[C@@](C)(OC)[C@@H](O)[C@H](C)O2)[C@H](C)[C@@H](O[C@@H]2O[C@H](C)C[C@H](N(C)C)[C@H]2O)[C@](C)(O)C[C@@H](C)C(=O)[C@H](C)[C@@H](O)[C@]1(C)O.N#CS.O.O.O` [erythromycin thiocyanate trihydrate], for which the “Assay (%)” value in data set [2] (month 0) amounted to 99.8%; in data set [2] (month 1), 99.9%; in data set [2] (month 2), 100.6%; in data set [2] (month 3), 100.3%; in data set [2] (month 6), 100.1%. Moreover, the Form result in [2] (month 0), in data set [2] (month 1), in data set [2] (month 2), in [2] (month 3) and in [2] (month 6) was “off-white powder” each time.

As to `CC[C@H]1OC(=O)[C@H](C)[C@@H](O[C@H]2C[C@@](C)(OC)[C@@H](O)[C@H](C)O2)[C@H](C)[C@@H](O[C@@H]2O[C@H](C)C[C@H](N(C)C)[C@H]2O)[C@](C)(O)C[C@@H](C)C(=O)[C@H](C)[C@@H](O)[C@]1(C)O` [erythromycin lactobionate trihydrate], the MIC50 was found to be 4 µg/mL in the data set with Bacillus fragilis (Bacillus, read-out: MIC50); 0.06 µg/mL in the data set on Propionibacterium (Propionibacterium, read-out: MIC50); 0.06 µg/mL in [3] (Streptococcus pyogenes, read-out: MIC50); 0.06 µg/mL in the data set with Pneumococcus (read-out: MIC50); 4 µg/mL with Bacillus influenzae (Bacillus, read-out: MIC50); 0.25 µg/mL in the data set on Neisseria gonorrhoeae (Neisseria gonorrhoeae, read-out: MIC50). Besides, the MIC50 came to 4 µg/mL in the data set on Escherichia coli (Escherichia coli, read-out: MIC50); 0.12 µg/mL with Staphylococcus aureus (Staphylococcus aureus, read-out: MIC50); 0.06 µg/mL in the data set on Streptococcus viridan (Streptococcus, read-out: MIC50); 16 µg/mL in [4] (Staphylococcus epidermidis, read-out: MIC50). Also, the MIC90 was 16 µg/mL in the data set with Bacillus fragilis (Bacillus, read-out: MIC90); 0.12 µg/mL in the data set with Propionibacterium (Propionibacterium, read-out: MIC90); 32 µg/mL in data set [3] (Streptococcus pyogenes, read-out: MIC90); 1 µg/mL with Pneumococcus (read-out: MIC90); 8 µg/mL in the data set with Bacillus influenzae (Bacillus, read-out: MIC90); 1 µg/mL in the data set with Neisseria gonorrhoeae (Neisseria gonorrhoeae, read-out: MIC90). The MIC90 with Streptococcus viridan (Streptococcus, read-out: MIC90) is 0.5 µg/mL. For the same compound, the MIC with Bacillus fragilis (Bacillus, read-out: MIC) lay in the range of 0.5 to 64 µg/mL; with Propionibacterium (Propionibacterium, read-out: MIC), 0.03 to 16 µg/mL; in data set [3] it was 0.03 to 32 µg/mL; with Pneumococcus (read-out: MIC) it was 0.03 to 0.5 µg/mL; with Bacillus influenzae (Bacillus, read-out: MIC) it was 0.12 to 8 µg/mL; with Neisseria gonorrhoeae (Neisseria gonorrhoeae, read-out: MIC), 0.06 to 2 µg/mL. Besides, the “Assay (%)” value in data set [2] (month 0) is 99.9%; in data set [2] (month 1), 100.2%; in data set [2] (month 2), 99.8%; in data set [2] (month 3), 100.1%; in data set [2] (month 6), 99.9%. Moreover, the Form entry in [2] (month 0), in data set [2] (month 1), in [2] (month 2), in [2] (month 3) and in [2] (month 6) was “off-white powder” each time.
